Test results taken from patent US10273221B2, “Microbiocidal heterobicyclic derivatives” (Syngenta Participations AG, priority 2015, dated 2019).

Experiments:
[1] = test system: Gaeumannomyces graminis; assay: Gaeumannomyces graminis / liquid culture (take-all of cereals); format: cell-based; settings: growth inhibition determined photometrically 4-5 days after application, vs untreated control, read-out: disease control
[2] = test system: Botryotinia fuckeliana (Botrytis cinerea); assay: Botryotinia fuckeliana (Botrytis cinerea) / liquid culture (gray mould); format: cell-based; settings: growth inhibition determined photometrically 3-4 days after application, vs untreated control, read-out: disease control
[3] = test system: Magnaporthe grisea (Pyricularia oryzae); assay: microbe, parasite or virus in culture; format: cell-based; settings: 72 h, read-out: control of Magnaporthe grisea
[4] = test system: Monographella nivalis (Microdochium nivale); assay: Monographella nivalis (Microdochium nivale) / liquid culture (foot rot cereals); format: cell-based; settings: 96 h, growth inhibition determined photometrically 4-5 days after application, vs untreated control, read-out: disease control
[5] = test system: Fusarium culmorum; assay: microbe, parasite or virus in culture; format: cell-based; settings: 72 h, read-out: disease control
[6] = test system: Glomerella lagenarium (Colletotrichum lagenarium); assay: Glomerella lagenarium (Colletotrichum lagenarium) / liquid culture (anthracnose); format: cell-based; settings: Colletotrichum orbiculare, growth inhibition measured photometrically 3-4 days after application, vs untreated control, read-out: disease control
[7] = test system: Sclerotinia sclerotiorum; assay: Sclerotinia sclerotiorum / liquid culture (cottony rot); settings: 72 h, read-out: control of Sclerotinia sclerotiorum
Method: Sclerotinia sclerotiorum/Liquid Culture (Cottony Rot)
Mycelia fragments of a newly grown liquid culture of the fungus are directly mixed into nutrient broth (Vogels broth). After placing a (DMSO) solution of test compound into a microtiter plate (96-well format) the nutrient broth containing the fungal material is added. The test plates are incubated at 24° C. and the inhibition of growth is determined photometrically 3-4 days after application.

[8] = test system: Pyrenophora teres; assay: Pyrenophora teres / liquid culture (net blotch); format: cell-based; settings: growth inhibition determined photometrically 3-4 days after application, vs untreated control

Row | SMILES | inhibition of growth at 200 ppm [1] [%] | inhibition of growth at 200 ppm [2] [%] | inhibition of growth at 20 ppm [3] [%] | inhibition of growth at 200 ppm [4] [%] | inhibition of growth at 200 ppm [5] [%] | inhibition of growth at 200 ppm [6] [%] | inhibition of growth at 20 ppm [7] [%] | inhibition of growth at 20 ppm [8] [%] | melting point [°C]
1 | Cc1c(F)ccc2c1ncn2C1=NC(C)(C)C(F)(F)c2cc(Cl)ccc21 [E-48] | ≥ 80 | ≥ 80 | ≥ 80 | ≥ 80 | ≥ 80 | – | – | – | –
2 | Cc1ccc2c(ncn2C2=NC(C)(C)C(F)(F)c3ccccc32)c1Cl [E-31] | ≥ 80 | ≥ 80 | ≥ 80 | ≥ 80 | ≥ 80 | ≥ 80 | ≥ 80 | – | –
3 | COc1cccc2c1ncn2C1=NC(C)(C)C(C)(C)c2c(F)cccc21 [E-6] | – | ≥ 80 | ≥ 80 | ≥ 80 | – | ≥ 80 | – | ≥ 80 | –
4 | Cc1cccc2c1ncn2C1=NC(C)(C)C(C)(C)c2c1ccc(F)c2F [E-46] | – | ≥ 80 | ≥ 80 | ≥ 80 | ≥ 80 | ≥ 80 | ≥ 80 | – | 122 to 125
5 | Cc1cccc2c1ncn2C1=NCC(C)(C)c2ccccc21 [E-44] | – | ≥ 80 | ≥ 80 | ≥ 80 | – | ≥ 80 | ≥ 80 | – | –
6 | Cc1cccc2c1ncn2C1=NC(C)(C)C(F)(F)c2cc(Cl)ccc21 [E-47] | ≥ 80 | ≥ 80 | ≥ 80 | ≥ 80 | ≥ 80 | – | – | – | –
7 | Cc1cccc2c1ncn2C1=NC(C)(C)C(F)(F)c2c(F)cccc21 [E-20] | – | ≥ 80 | ≥ 80 | ≥ 80 | ≥ 80 | ≥ 80 | ≥ 80 | ≥ 80 | –
8 | CC1(C)N=C(n2cnc3ccccc32)c2ccccc2C12CC2 [E-3, 1′-(benzimidazol-1-yl)-3′,3′-dimethyl-spiro(cyclopropane-1,4′-isoquinoline)] | ≥ 80 | ≥ 80 | – | – | – | ≥ 80 | – | – | –
9 | CC1(C)N=C(n2cnc3c(C(F)(F)F)cccc32)c2cccc(F)c2C1(C)C [E-5] | – | ≥ 80 | ≥ 80 | ≥ 80 | – | ≥ 80 | – | ≥ 80 | –
10 | C=Cc1cccc2c1ncn2C1=NC(C)(C)C(C)(C)c2c(F)cccc21 [E-13] | – | ≥ 80 | ≥ 80 | ≥ 80 | – | ≥ 80 | – | ≥ 80 | 70 to 71
11 | Cc1cccc2c1ncn2C1=NC(C)(C)C(C)(C)c2c(F)cccc21 [Example 1] | – | – | – | – | – | – | – | – | 118 to 120
12 | Cc1ccc2c(ncn2C2=NC(C)(C)C(=O)c3ccccc32)c1C [E-25] | – | ≥ 80 | ≥ 80 | ≥ 80 | ≥ 80 | ≥ 80 | ≥ 80 | ≥ 80 | 159 to 161
13 | CC1(C)N=C(n2cnc3ccccc32)c2cccc(F)c2C1(C)C [E-2] | – | ≥ 80 | – | ≥ 80 | ≥ 80 | ≥ 80 | – | – | –
14 | Cc1cccc2c1ncn2C1=NCC2(CCCCC2)c2ccccc21 [E-52] | – | ≥ 80 | ≥ 80 | – | – | – | – | – | –
15 | Cc1cccc2c1ncn2C1=NC(C)(C)Cc2c(Cl)cccc21 [E-40] | – | ≥ 80 | ≥ 80 | ≥ 80 | – | ≥ 80 | ≥ 80 | – | –
16 | CC1(C)N=C(n2cnc3c(Cl)cccc32)c2ccc(Cl)cc2C1(F)F [E-37] | ≥ 80 | ≥ 80 | ≥ 80 | ≥ 80 | – | – | ≥ 80 | – | 197 to 200
17 | CC1(C)N=C(n2cnc3c4c(ccc32)CCC4)c2cccc(F)c2C1(C)C [E-51] | ≥ 80 | ≥ 80 | ≥ 80 | ≥ 80 | ≥ 80 | – | – | – | 177 to 178

Row | SMILES | inhibition of growth at 200 ppm [1] [%] | inhibition of growth at 200 ppm [2] [%] | inhibition of growth at 20 ppm [3] [%] | inhibition of growth at 200 ppm [4] [%] | inhibition of growth at 200 ppm [5] [%] | inhibition of growth at 200 ppm [6] [%] | inhibition of growth at 20 ppm [7] [%] | inhibition of growth at 20 ppm [8] [%] | melting point [°C]
18 | Cc1cccc2c1ncn2C1=NC(C)(C)Cc2c(Br)cccc21 [E-38] | – | ≥ 80 | ≥ 80 | ≥ 80 | – | ≥ 80 | ≥ 80 | – | 52 to 54
19 | Cc1cccc2c1ncn2C1=NC(C)(C)C(C)(C)c2c1ccc(Cl)c2F [E-45] | – | ≥ 80 | ≥ 80 | ≥ 80 | ≥ 80 | ≥ 80 | ≥ 80 | – | 147 to 151
20 | Cc1ccc2c(ncn2C2=NC3(CC3)C3(CC3)c3ccccc32)c1C [E-58] | ≥ 80 | ≥ 80 | ≥ 80 | ≥ 80 | ≥ 80 | ≥ 80 | ≥ 80 | – | 141 to 143
21 | Cc1cccc2c1ncn2C1=NC2(CCC2)Cc2ccccc21 [E-43] | – | ≥ 80 | ≥ 80 | ≥ 80 | – | ≥ 80 | ≥ 80 | – | 132 to 133
22 | Cc1cccc2c1ncn2C1=NC2(CC2)Cc2ccccc21 [E-59] | ≥ 80 | ≥ 80 | ≥ 80 | ≥ 80 | ≥ 80 | ≥ 80 | – | – | –
23 | CC1(C)N=C(n2cnc3c(Cl)cccc32)c2ccccc2C1=O [E-29] | – | ≥ 80 | – | – | – | – | – | – | –
24 | Cc1c(Cl)ccc2c1ncn2C1=NC(C)(C)C(C)(C)c2c(F)cccc21 [E-42] | – | ≥ 80 | ≥ 80 | ≥ 80 | ≥ 80 | ≥ 80 | ≥ 80 | – | 102 to 103
25 | Cc1cccc2c1ncn2C1=NC(C)(C)C(F)(F)c2ccccc21 | – | – | – | – | – | – | – | – | 142 to 149
26 | Cc1ccc2c(ncn2C2=NC(C)(C)C(F)(F)c3cc(Cl)ccc32)c1C [E-49] | ≥ 80 | ≥ 80 | ≥ 80 | ≥ 80 | ≥ 80 | ≥ 80 | – | – | –
27 | CC1(C)N=C(n2cnc3c(C4CC4)cccc32)c2cccc(F)c2C1(C)C [E-8] | ≥ 80 | ≥ 80 | ≥ 80 | ≥ 80 | – | ≥ 80 | – | – | –
28 | C=C(C)c1cccc2c1ncn2C1=NC(C)(C)C(C)(C)c2c(F)cccc21 [E-11] | – | ≥ 80 | ≥ 80 | ≥ 80 | – | ≥ 80 | – | ≥ 80 | –
29 | Cc1cccc2c1ncn2C1=NC2(CC2)C2(CC2)c2ccccc21 [E-61] | ≥ 80 | ≥ 80 | ≥ 80 | ≥ 80 | ≥ 80 | ≥ 80 | ≥ 80 | – | –
30 | CC(C)c1cccc2c1ncn2C1=NC(C)(C)C(C)(C)c2c(F)cccc21 [E-12] | – | ≥ 80 | ≥ 80 | ≥ 80 | – | ≥ 80 | – | ≥ 80 | 113 to 114
31 | CC1(C)N=C(n2cnc3cc(Cl)c(Cl)cc32)c2cccc(F)c2C1(C)C [E-39] | – | ≥ 80 | ≥ 80 | ≥ 80 | – | ≥ 80 | ≥ 80 | – | 126 to 127
32 | Cc1c(Br)ccc2c1ncn2C1=NC(C)(C)C(C)(C)c2c(F)cccc21 [E-41] | ≥ 80 | ≥ 80 | ≥ 80 | ≥ 80 | ≥ 80 | ≥ 80 | ≥ 80 | – | 122 to 124
33 | Cc1cccc2c1ncn2C1=NC(C)(C)C(=O)c2ccccc21 [E-10] | – | ≥ 80 | ≥ 80 | ≥ 80 | – | ≥ 80 | – | ≥ 80 | 123 to 125
34 | COC(=O)c1cccc2c1ncn2C1=NC(C)(C)C(C)(C)c2c(F)cccc21 [E-24] | – | – | ≥ 80 | – | – | – | – | – | 178 to 179
